From patent US7759349B2, “Control of parasites in animals by the use of imidazo[1,2-b]pyridazine derivatives” (Schering-Plough Animal Health Corporation, priority 2003, dated 2010)

System: Haemonchus contortus
Assay: Haemonchus contortus larvacidal assay: NemaTOX H. contortus dose response (larval development, eggs to L3)
Format: cell-based
Settings: Haemonchus contortus, 144 h; Table 3; concentration required to inhibit development in 99% of the nematode larvae; eggs on agar to L3 stage (6 days); two-fold dilutions, 0.024 to 50 μg/ml; read-out: LD99
Experimental: Haemonchus Contortus Larvacidal Assay: NemaTOX H.contortus Dose Response (00/0510)
Effect on larval development is determined in the assay described by Gill et al. (International Journal of Parasitology, 1995, 25, 463-470). Briefly, in this assay nematode eggs were applied to the surface of an agar matrix containing the test compound and then allowed to develop through to the L3, infective stage (6 days)
The wells for each dilution of every compound (from highest to lowest concentration) were inspected to determine the well number corresponding to the lowest concentration at which development was inhibited in 99% of the nematode larvae present. As the well numbers correspond to a two-fold serial dilution of each compound, a titre (dilution factor) is generated as 2^n-1, where n is the well number. By dividing the highest concentration tested by the titre an LD99 value can be obtained, representing the concentration required to inhibit development in 99% of the nematode larvae present.
The compounds supplied as solid and viscous liquids were dissolved in DMSO. Twelve serial 1/2 dilutions in DMSO solution were prepared from the stock solution, each of which was then diluted 1/5 with water. Aliquots (10 μl) of each dilution were transferred to the bioassay plates to give a final concentration range of 0.024 to 50 μg/ml.
In Tables 1, 2 and 3 the Haemonchus contortus LD99 values for compounds in accordance with the present invention are listed, measured in micrograms/mL.

Compound	IC99
CCCOc1ccc2nc3c(n2n1)CCc1cc(OC)ccc1-3 [Compound 121, 3-Methoxy-8-propoxy-5,6-dihydro-6b,7,11-triaza-benzo[a]fluorene]	0.203 µg/mL
CCCOc1ccc2nc3c(n2n1)Cc1ccccc1-3 [Compound 123, 3-Propoxy-5H-4,4a, 10-triaza-indeno[2,1-a]indene]	0.469 µg/mL

Same assay, conditions: Table 2; concentration required to inhibit development in 99% of the nematode larvae; eggs on agar to L3 stage (6 days); two-fold dilutions, 0.024 to 50 μg/ml

Compound	LD99
COCCOc1ccc(-c2cn3nc(OCc4ccccc4)ccc3n2)cc1 [Compound 92]	0.438 micrograms/mL
COCCOc1cccc(-c2nc3ccc(Br)nn3c2C)c1 [Compound 93]	11 micrograms/mL
CCCOc1ccc2nc(-c3cccc(OCCOC)c3)c(C)n2n1 [Compound 94]	1.88 micrograms/mL
COCCOc1cccc(-c2nc3ccc(OCC4CC4)nn3c2C)c1 [Compound 95]	0.875 micrograms/mL
CCCCSc1ccc2nc(-c3ccc(OCCOC)cc3)cn2n1 [Compound 99]	0.0938 micrograms/mL
CCOc1ccc2nc(-c3ccc(OCCOC)cc3)cn2n1 [Compound 100]	0.406 micrograms/mL
CCSc1ccc2nc(-c3ccc(OCCOC)cc3)cn2n1 [Compound 101]	0.3123 micrograms/mL
COCCOc1cccc(-c2nc3ccc(SCC(C)C)nn3c2C)c1 [Compound 102]	12 micrograms/mL
COCCOc1cccc(-c2nc3ccc(SC(C)C)nn3c2C)c1 [Compound 103]	7 micrograms/mL
COCCOc1cccc(-c2nc3ccc(OC(C)C)nn3c2C)c1 [Compound 104]	5 micrograms/mL
COCCOc1ccc(-c2cn3nc(SCC(C)C)ccc3n2)cc1OC [Compound 105]	0.406 micrograms/mL
CCCCOc1ccc2nc(-c3ccc(OCCOC)c(OC)c3)cn2n1 [Compound 106]	0.313 micrograms/mL
COCCOc1ccc(-c2cn3nc(OC(C)C)ccc3n2)cc1OC [Compound 107]	7 micrograms/mL
COCCOc1ccc(-c2cn3nc(SCC(C)C)ccc3n2)cc1 [Compound 108]	0.313 micrograms/mL
COCCOc1ccc(-c2cn3nc(SC(C)C)ccc3n2)cc1 [Compound 109]	0.203 micrograms/mL
CCCCOc1ccc2nc(-c3ccc(OCCOC)cc3)cn2n1 [Compound 111]	0.219 micrograms/mL
COCCOc1ccc(-c2cn3nc(OC(C)C)ccc3n2)cc1 [Compound 112]	1.63 micrograms/mL
CCCOc1ccc2nc(-c3ccc(OCCOC)c(OC)c3)c(I)n2n1 [Compound 113]	5 micrograms/mL
COCCOc1ccc(-c2nc3ccc(SCC(C)C)nn3c2CN(C)C)cc1 [Compound 114]	3.25 micrograms/mL
CCCCSc1ccc2nc(-c3ccc(OCCOCC)cc3)cn2n1 [Compound 115]	0.219 micrograms/mL
CCCOc1ccc2nc(-c3ccc(OCCOCC)cc3)cn2n1 [Compound 116]	0.109 micrograms/mL
CCOCCOc1ccc(-c2cn3nc(OCC4CC4)ccc3n2)cc1 [Compound 117]	0.0391 micrograms/mL
CCOc1ccc2nc(-c3ccc(OCCOC)c(OC)c3)cn2n1 [Compound 118]	1.25 micrograms/mL
CCCOc1nn2cc(-c3ccc(OCCOC)cc3)nc2c2ccccc12 [Compound 119]	0.344 micrograms/mL
CCCOc1nn2cc(-c3ccc(OCCO)cc3)nc2c2ccccc12 [Compound 120]	1.38 micrograms/mL
